From patent publication US10196425B2, “Peptide compositions” (RHYTHM PHARMACEUTICALS, INC., priority 2013, dated 2019)
Like-named read-outs stand apart in the source and are kept apart here. Bridge positions count the residues as written; N and C are the ends. Square brackets hold non-standard residues; d marks the D form. Peptide text beside a SMILES is read from it. Pen = CC(C)(S)[C@H](N)C(=O)O; hCys = N[C@@H](CCS)C(=O)O

What was measured:
Format in all cases: cell-based
[1] = biological target: MC5R (Homo sapiens, UniProt P33032); experiment: cAMP assay (β-galactosidase reporter, cAMP Hunter), MC5R; details: for Ratios of EC50 values MC 5/4: EC50(MC5R)/EC50(MC4R)
MC5R, sequence (P33032 whole entry): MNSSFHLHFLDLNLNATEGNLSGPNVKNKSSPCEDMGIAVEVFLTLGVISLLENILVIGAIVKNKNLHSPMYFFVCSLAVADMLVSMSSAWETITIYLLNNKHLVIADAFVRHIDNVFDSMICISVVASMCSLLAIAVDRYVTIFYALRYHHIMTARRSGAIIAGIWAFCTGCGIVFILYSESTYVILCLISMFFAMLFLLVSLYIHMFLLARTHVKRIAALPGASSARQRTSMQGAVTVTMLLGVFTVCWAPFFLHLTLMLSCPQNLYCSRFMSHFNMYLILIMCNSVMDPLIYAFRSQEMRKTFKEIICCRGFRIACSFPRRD
Source text: (§1) cAMP Accumulation Measurement Via a β-Galactosidase (β-Gal) Reporter System
(§2) A chemiluminescence readout system that uses an enzyme fragment complementation (EFC) system with β-galactosidase (β-Gal) as the functional reporter system was used. This assay system for various melanocortin receptor systems is commercially available (cAMP Hunter GPCR assay system, Discoverx Corp, Fremont, Calif.). This assay utilizes the β-Gal enzyme that is split into two complementary portions; EA for Enzyme Acceptor and ED for Enzyme Donor. In the assay, the ED portion fused to cAMP is made to compete with cAMP generated by cells for binding to a cAMP-specific antibody. The EA is then added to form active β-Gal with any unbound ED-cAMP.
(§3) Briefly, 10000 cells per well are plated overnight and each well (cells incubated with 10 μl assay buffer) is then incubated with 4× serial concentration of the test compound in the cell assay buffer (5 μL) and cAMP antibody reagent (5 μL) for 30 min at 37° C. The cell lysis buffer (20 μL) containing ED-cAMP coupled enzyme fragment and the reporter substrate (Emerald II-Galacton Star, 5:1) is then added and incubated for 60 min at room temperature. Next, 20 μL of EA β-Gal fragment reagent is added.

[2] = biological target: MC1R (Homo sapiens, UniProt Q01726); experiment: cAMP assay (β-galactosidase reporter, cAMP Hunter), MC1R; details: for Ratios of EC50 values MC ¼: EC50(MC1R)/EC50(MC4R)
MC1R, sequence (Q01726 whole entry): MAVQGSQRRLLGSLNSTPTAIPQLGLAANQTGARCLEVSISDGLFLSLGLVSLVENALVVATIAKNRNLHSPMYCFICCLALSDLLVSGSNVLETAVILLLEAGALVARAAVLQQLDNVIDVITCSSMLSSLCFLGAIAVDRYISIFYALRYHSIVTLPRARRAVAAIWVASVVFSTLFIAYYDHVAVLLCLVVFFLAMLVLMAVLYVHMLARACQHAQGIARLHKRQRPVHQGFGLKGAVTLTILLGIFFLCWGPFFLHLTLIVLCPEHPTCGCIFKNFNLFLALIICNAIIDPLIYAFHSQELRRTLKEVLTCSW
Source text: as §1, §2, §3

[3] = biological target: MC4R (Homo sapiens, UniProt P32245); experiment: cAMP assay (β-galactosidase reporter, cAMP Hunter), MC4R
MC4R, sequence (P32245 whole entry): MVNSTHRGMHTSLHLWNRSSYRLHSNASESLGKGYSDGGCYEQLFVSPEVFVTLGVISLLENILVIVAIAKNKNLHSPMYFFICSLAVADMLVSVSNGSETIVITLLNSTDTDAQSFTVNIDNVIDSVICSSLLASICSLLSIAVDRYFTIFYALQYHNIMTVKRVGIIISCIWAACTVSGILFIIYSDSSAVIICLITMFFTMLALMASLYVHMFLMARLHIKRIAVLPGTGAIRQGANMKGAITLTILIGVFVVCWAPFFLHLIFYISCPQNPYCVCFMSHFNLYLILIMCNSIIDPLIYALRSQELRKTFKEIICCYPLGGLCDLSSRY
Source text: as §1, §2, §3

[4] = biological target: MC3R (Homo sapiens, UniProt P41968); experiment: cAMP assay (β-galactosidase reporter, cAMP Hunter), MC3R; details: for Ratios of EC50 values MC ¾: EC50(MC3R)/EC50(MC4R)
MC3R, sequence (P41968 whole entry): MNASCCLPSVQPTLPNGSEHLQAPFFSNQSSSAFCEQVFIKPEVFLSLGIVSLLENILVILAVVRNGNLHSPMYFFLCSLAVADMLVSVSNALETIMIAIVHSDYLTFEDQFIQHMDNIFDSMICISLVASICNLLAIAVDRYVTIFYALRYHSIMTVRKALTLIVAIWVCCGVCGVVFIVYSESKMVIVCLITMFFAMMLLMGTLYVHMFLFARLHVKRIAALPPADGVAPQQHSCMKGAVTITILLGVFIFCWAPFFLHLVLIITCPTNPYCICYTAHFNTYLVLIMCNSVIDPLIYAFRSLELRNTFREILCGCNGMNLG
Source text: as §1, §2, §3

[5] = agonist cAMP stimulation, read-out: cAMP Assay (EC-50) MC5R
[6] = agonist cAMP stimulation, read-out: cAMP Assay (EC-50) MC1R
[7] = agonist cAMP stimulation, read-out: cAMP Assay (EC-50) MC4R
[8] = agonist cAMP stimulation, read-out: cAMP Assay (EC-50) MC3R

Row | SMILES | Ratios of EC50 values MC 5/4 [1] | EC50 [1, 5] | Ratios of EC50 values MC ¼ [2] | EC50 [2, 6] | EC50 [3, 7] | Ratios of EC50 values MC ¾ [4] | EC50 [4, 8] | EC50 [1] | EC50 [2] | EC50 [3] | EC50 [4]
1 | CC(=O)N[C@@H](CCCNC(=N)N)C(=O)N[C@H]1CCSSC[C@@H](C(N)=O)NC(=O)[C@H](Cc2c[nH]c3ccccc23)NC(=O)[C@H](CCCNC(=N)N)NC(=O)[C@@H](Cc2ccccc2)NC(=O)[C@@H](C)NC1=O [Compound 16, Ac-Arg-cyclo[hCys-D-Ala-D-Phe-Arg-Trp-Cys]-NH2] (Ac-R[hCys][dA][dF]RWC-NH2; disulfide 2-7) | >1338 | > 10000 nM | 120 | 888 nM | 7.5 nM | 420 | 3160 nM |  |  |  | 
2 | CC(=O)N[C@@H](CCCNC(=N)N)C(=O)N[C@H]1CCSSC(C)(C)[C@@H](C(N)=O)NC(=O)[C@H](Cc2c[nH]c3ccccc23)NC(=O)[C@H](CCCNC(=N)N)NC(=O)[C@@H](Cc2ccccc2)NC(=O)[C@@H](C)NC1=O [Compound 17, Ac-Arg-cyclo[hCys-D-Ala-D-Phe-Arg-Trp-Pen]-NH2] (Ac-R[hCys][dA][dF]RW[Pen]-NH2; disulfide 2-7) | 159 | 2180 nM | 15 | 195 nM | 13.7 nM | 17 | 233 nM |  |  |  | 
3 | CC(=O)N[C@@H](CCC(=O)O)C(=O)N[C@H]1CSSC[C@@H](C(N)=O)NC(=O)[C@H](Cc2c[nH]c3ccccc23)NC(=O)[C@H](CCCNC(=N)N)NC(=O)[C@@H](Cc2ccccc2)NC(=O)[C@H](Cc2c[nH]cn2)NC(=O)[C@H](C)NC1=O [Compound 22, Ac-Glu-cyclo[Cys-Ala-His-D-Phe-Arg-Trp-Cys]-NH2] (Ac-ECAH[dF]RWC-NH2; disulfide 2-8) | >2563 |  | >3 |  |  | >20 |  | 1280 nM | 1.7 nM | < 0.5 nM | 9.9 nM
